Measured values as given in PubChem BioAssay AID2060606 (Molecular Pharmacology Branch, DTP, NCI, 2025).
“And” between values parts separate entries of the source, which are not always exact repeats. Equal values may be shown once.

Test system: 922993-354-T-J3-PDC complex spheroids, viability, % test/control
Assay: Anticancer human tumor 922993-354-T-J3-PDC patient-derived endometrial carcinoma cell line growth inhibition [CLK]
Details: for viability, T/C: stronger effect = lower value
From the text: A high-throughput screen of multi-cell type tumor spheroids was designed to identify active combinations of […] and targeted small molecules. Complex spheroids include a stromal component modeled by human endothelial cells (HUVEC) and fibroblasts modeled by human mesenchymal stem cells (MSCs). The concentration ranges selected for each drug and investigational agent were based upon clinically achievable concentrations if the clinical Cmax of the agent was known.
Compounds. The drugs and investigational agents: cirtuvivint (SM08502; NSC835563), CC-671 (NSC850746), vemurafenib (NSC761431), tapotoclax (NSC804041), sotorasib (NSC818433), adagrasib (NSC831453), MRTX-1133 (NSC836407), BAY2416964 (NSC825713), copanlisib (NSC816437), inavolisib (NSC800729), abemaciclib (NSC768073), osimertinib (NSC779217), entinostat (NSC756642), eltanexor (KPT-8602, NSC794443), venetoclax (NSC766270), ceralasertib (NSC777638), bortezomib (NSC756655), olaparib (NSC753686), talazoparib (NSC767125), alisertib (NSC759677), peposertib (NSC802822), gemcitabine (NSC613327), 5-fluorouracil (NSC19893), SN-38 (NSC673596), oxaliplatin (NSC266046), paclitaxel (NSC125973), and doxorubicin (NSC123127), were obtained from the National Cancer Institute (NCI) Developmental Therapeutics Program Chemical Repository. The FDA-approved anticancer drug set is available from the Developmental Therapeutics Program at https://dtp.cancer.gov/organization/dscb/obtaining/available plates.htm. […] The stock solutions were prepared in dimethyl sulfoxide (DMSO, Sigma-Aldrich, St. Louis, MO, cat. D2650), except for the platinum complexes which were prepared in saline (Quality Biological, Gaithersburg, MD, cat. 114-055-101), at 800-fold the tested concentration and stored at -70 degrees C prior to their use. All drugs and investigational agents were tested over a range starting from a high concentration at or near the clinical Cmax and decreasing in half-log increments. If the clinical Cmax for an agent had not been determined, the highest concentration tested was 10 microM.
Cell Culture. All cells were maintained in an incubator at 37 degrees C and 5% CO2 with 95% humidity. The PDC lines were cultured according to standard operating procedures established by the NCI PDMR. Briefly, all PDCs were thawed and cultured in Matrigel-coated flasks prepared with a working solution of 1X Ham's F-12 nutrient mix, without supplementation (Invitrogen, Waltham, MA, cat. 11765054), 100 U/mL penicillin-streptomycin (Invitrogen, cat. 15140122), and 2.5% Matrigel (Corning Inc., Corning, NY, cat. 354248) for the first three passages. The 947758-054-R-J2-PDC line was cultured in 6B/Colon 1A media, which includes advanced DMEM/F-12 (Thermo Fisher Scientific, cat. 12634028), 10 mM HEPES (Thermo Fisher Scientific, cat. 15630080), 1X GlutaMAX supplement (Thermo Fisher Scientific, cat. 35050061), 0.1 mg/mL primocin (InvivoGen, cat. ant-pm-2), 10% defined fetal bovine serum, heat inactivated (HyClone Laboratories Inc., cat. SH30070.03HI), 1.25 mM N-Acetyl-L-cysteine (Sigma-Aldrich, cat. A9165), 10 mM nicotinamide (Sigma-Aldrich, cat. N0636), 1X B-27 supplement (Thermo Fisher Scientific, cat. 17504044), 1X N-2 supplement (Thermo Fisher Scientific, cat. 17502048), and 10 microM Y-27632 dihydrochloride (Tocris Bioscience, cat. 1254). The 876862-298-R-J1-PDC was cultured in 6E media, which includes all 6B/Colon 1A media components plus 50% L-WRN conditioned media (ATCC, cat. CRL-3276), 50 ng/mL recombinant human EGF recombinant protein (hEGF; Thermo Fisher Scientific, cat. PHG0311), 10 ng/mL recombinant human fibroblast growth factor 10 (hGFG-10; PeproTech, cat. 100-26), 1 ng/mL recombinant human fibroblast growth factor 2 (hFGF-2; PeproTech, cat. 100-18B), and 1 µM prostaglandin E2 (PGE2; Tocris, cat. 2296). The 227483-062-R1-J1-PDC line was cultured in Panc media, containing all 6E components except hFGF-2, with the addition of 500 nM SB-431542 (Selleckchem, cat. S1067) and 10 nM gastrin (Tocris, cat. 3006). […]
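Further: spheroids exposed to the agents for 7 days before readout.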

SMILES	viability, T/C (compound 0.0316 µM)	viability, T/C (compound 0.1 µM)	viability, T/C (compound 0.316 µM)	viability, T/C (compound 1 µM)	viability, T/C (compound 3.16 µM)	viability, T/C (compound 10 µM)	IC50 (curve of compound)	other results
C#Cc1c(F)ccc2cc(O)cc(-c3ncc4c(N5CC6CCC(C5)N6)nc(OCC56CCCN5CC(F)C6)nc4c3F)c12 (stereo not drawn)	99.4% and 98.9%	82% and 83%	95.2% and 109%	93% and 94%	98.1% and 104%	95.9% and 101%	> 10 µM	
C=C(F)C(=O)N1CCN(c2nc(OCC3CCCN3C)nc3c2CCN(c2cccc4cccc(Cl)c24)C3)CC1CC#N (stereo not drawn)	96.9% and 91.5%	97.8% and 100%	93.3% and 104%	91.2% and 92%	79.4% and 67.9%	2.9% and 0.21%	4.9 µM and 4.28 µM	
C=CC(=O)N1CCN(c2nc(=O)n(-c3c(C)ccnc3C(C)C)c3nc(-c4c(O)cccc4F)c(F)cc23)C(C)C1 (stereo not drawn)	101% and 104%	94.5% and 105%	104% and 92%	105% and 99.2%	92.5% and 111%	93% and 93.6%	> 10 µM	
C=CC(=O)Nc1cc(Nc2nccc(-c3cn(C)c4ccccc34)n2)c(OC)cc1N(C)CCN(C)C							> 0.3 µM	viability, T/C (compound 0.000949 µM): 93.6% and 122%; viability, T/C (compound 0.003 µM): 92.5% and 98.6%; viability, T/C (compound 0.00949 µM): 60.9% and 98.1%; viability, T/C (compound 0.03 µM): 97.8% and 85.3%; viability, T/C (compound 0.0949 µM): 90.1% and 94.2%; viability, T/C (compound 0.3 µM): 72.3% and 86.4%
CC(=O)O[C@H]1C(=O)[C@@]2(C)[C@H]([C@H](OC(=O)c3ccccc3)[C@]3(O)C[C@H](OC(=O)[C@H](O)[C@@H](NC(=O)c4ccccc4)c4ccccc4)C(C)=C1C3(C)C)[C@]1(OC(C)=O)CO[C@@H]1C[C@@H]2O	105% and 92.5%	79% and 115%	84% and 85.9%	95.6% and 88.3%	52.7% and 71.6%	37.1% and 40.2%	3.86 µM and 6.98 µM	
CC(C)CC(NC(=O)C(Cc1ccccc1)NC(=O)c1cnccn1)B(O)O (stereo not drawn)							0.00631 µM and 0.00744 µM	viability, T/C (compound 0.000949 µM): 91.1% and 99.8%; viability, T/C (compound 0.003 µM): 85.1% and 72.4%; viability, T/C (compound 0.00949 µM): 30.7% and 48.4%; viability, T/C (compound 0.03 µM): 2.06% and 11.1%; viability, T/C (compound 0.0949 µM): 0.41% and 2.23%; viability, T/C (compound 0.3 µM): 0.17% and 0.49%
CC(CO)NC(=O)c1cc(-c2ccc(Cl)cc2)nn(-c2cnn(C)c2)c1=O (stereo not drawn)	107% and 97.1%	106% and 87.2%	98% and 86%	97.1% and 81.7%	102% and 95.1%	74.8% and 64.1%	> 10 µM	
CC(Nc1ccc2c(c1)OCCn1cc(N3C(=O)OCC3C(F)F)nc1-2)C(N)=O (stereo not drawn)	115% and 99.3%	107% and 93.8%	84.6% and 77.5%	73.1% and 70.7%	28.4% and 49%	22.1% and 34.3%	1.79 µM and 3.33 µM	
CC1(C)CCC(CN2CCN(c3ccc(C(=O)NS(=O)(=O)c4ccc(NCC5CCOCC5)c([N+](=O)[O-])c4)c(Oc4cnc5[nH]ccc5c4)c3)CC2)=C(c2ccc(Cl)cc2)C1	96.7% and 84.1%	90.2% and 99.4%	110% and 101%	123% and 95.5%	85.6% and 121%	36.7% and 82.9%	7.31 µM and > 10 µM	
CC1COCCN1c1cc(C2(S(C)(=N)=O)CC2)nc(-c2ccnc3[nH]ccc23)n1 (stereo not drawn)	101% and 91.8%	118% and 86.8%	130% and 91.7%	90.4% and 102%	108% and 94.2%	68.6% and 78.2%	> 10 µM	
CCCS(=O)(=O)Nc1ccc(F)c(C(=O)c2c[nH]c3ncc(-c4ccc(Cl)cc4)cc23)c1F	113% and 92.8%	79.7% and 76.8%	97.7% and 113%	111% and 94.1%	65.2% and 95.7%	59% and 65.5%	> 10 µM	
CCN1CCN(Cc2ccc(Nc3ncc(F)c(-c4cc(F)c5nc(C)n(C(C)C)c5c4)n3)nc2)CC1	94.2% and 84.1%	99.8% and 93.6%	72% and 73.3%	59.6% and 50.1%			> 1 µM	viability, T/C (compound 0.00316 µM): 94.4% and 96.9%; viability, T/C (compound 0.01 µM): 91.2% and 85.8%
CCc1c2c(nc3ccc(O)cc13)-c1cc3c(c(=O)n1C2)COC(=O)[C@]3(O)CC	12.8% and 21.2%	13.1% and 16%	17% and 25.4%	22% and 27.1%			0.00743 µM and 0.0161 µM	viability, T/C (compound 0.00316 µM): 84.6% and 97.6%; viability, T/C (compound 0.01 µM): 38% and 69.2%
CNC(=O)c1ccc(Nc2nc(OC3CCCC3)c3c(-c4ccc5nc(C)oc5c4)c[nH]c3n2)c(OC)c1	106% [middle of 12 runs]	107% [middle of 12 runs]		39.3% [middle of 12 runs]	34.4% [middle of 12 runs]	33.4% [middle of 12 runs]		IC50 (compound alone, run of 09/19/2023): 557 nM [middle of 12 runs]
COC1C=CCC(C)C(C)S(=O)(=O)NC(=O)c2ccc3c(c2)N(CC2CCC21)CC1(CCCc2cc(Cl)ccc21)CO3 (stereo not drawn)	99.2% and 106%	99.9% and 97.5%	103% and 106%	84.5% and 89.9%	68.4% and 84%	13.7% and 21.5%	4.57 µM and 5.82 µM	
COc1c(OCCCN2CCOCC2)ccc2c3n(c(=NC(=O)c4cnc(N)nc4)nc12)CCN3	75.1% and 91.2%	54.6% and 68.8%	30.3% and 40.4%	9.62% and 15.9%			0.118 µM and 0.226 µM	viability, T/C (compound 0.00316 µM): 109% and 111%; viability, T/C (compound 0.01 µM): 89.1% and 90.3%
Cn1ncnc1[C@H]1c2n[nH]c(=O)c3cc(F)cc(c23)N[C@@H]1c1ccc(F)cc1	104% and 98.2%	75.3% and 72.6%					> 0.1 µM	viability, T/C (compound 0.000316 µM): 94.9% and 97.8%; viability, T/C (compound 0.001 µM): 80.7% and 87.4%; viability, T/C (compound 0.00316 µM): 104% and 100%; viability, T/C (compound 0.01 µM): 124% and 103%
NC(=O)C(=Cn1cnc(-c2cc(C(F)(F)F)cc(C(F)(F)F)c2)n1)c1cncnc1							0.187 µM and 1.17 µM	viability, T/C (compound 0.00949 µM): 99% and 121%; viability, T/C (compound 0.03 µM): 107% and 106%; viability, T/C (compound 0.0949 µM): 64.8% and 96.1%; viability, T/C (compound 0.3 µM): 47.6% and 68.7%; viability, T/C (compound 0.949 µM): 46.4% and 56.8%; viability, T/C (compound 3 µM): 24.8% and 32.5%
Nc1ccccc1NC(=O)c1ccc(CNC(=O)OCc2cccnc2)cc1	105% and 111%	71.8% and 85.9%	95.8% and 95.2%	71.8% and 81.7%	64.9% and 70.1%	53.4% and 55.2%	> 10 µM	
Nc1ccn(C2OC(CO)C(O)C2(F)F)c(=O)n1 (stereo not drawn)	15.9% and 15.4%	17.1% and 18.3%	15.5% and 15.6%	15.6% and 16.5%	15.1% and 13.7%	13.5% and 14.2%	< 0.0316 µM	
O=C(c1cc(Cc2n[nH]c(=O)c3ccccc23)ccc1F)N1CCN(C(=O)C2CC2)CC1	81.9% and 98.5%	91.4% and 88.5%	85.5% and 102%	93% and 118%	96.8% and 107%	83.2% and 100%	> 10 µM	
O=c1[nH]cc(F)c(=O)[nH]1	102% and 101%	95.8% and 97.9%	86.8% and 93.4%	104% and 115%	38% and 60.7%	26.7% and 35.1%	2.51 µM and 5.11 µM	
